Measured values taken from patent publication US4307016A, “Demethyl maytansinoids” (priority 1978, dated 1981).
Converted amounts (≈) assume the structure as drawn. Like-named read-outs stand apart in the source and are kept apart here.

Legend:
[1] = tested on: Hamigera avellanea IFO 7721; assay: Antifungal activity, paper disc method (zone of growth inhibition); type: cell-based; conditions: for zone of inhibition at 100 µg/mL: Hamigera avellanea
Method: On the other hand, on agar plates [3.5 g disodium hydrogen phosphate, 0.5 g monopotassium phosphate, 5 g of yeast extract (Difco), 10 g glucose, 15 g agar, 1000 ml distilled water, pH 7.0], the antifungal activity of the test compound was assayed against Hamigera avellanea IFO 7721 by the paper disc method. Thus, on the plates inoculated with the above microorganism, the zones of growth inhibition were determined using paper discs immersed with 0.02 ml of a 100 μg/ml solution of demethylmaytansinoid compound (I).

Solubility = conditions: for Solubility in benzene, ether: ether (Table 4); for Solubility in chloroform, ethyl acetate, tetrahydrofuran, acetone, ethanol, methanol: organic solvents (Table 4); for Solubility in pyridine, dimethyl sulfoxide: dimethyl sulfoxide (Table 4); for Solubility in chloroform, ethyl acetate, acetone, ethanol, methanol, pyridine, tetrahydrofuran & dimethylsulfoxide: organic solvents (Table 3); for Solubility in petr. ether, n-hexane & water: n-hexane & water (Table 3)
Tetrahymena pyriformis W = assay: Antiprotozoan activity, serial dilution method (MIC); type: cell-based
Method: Then, with Tetrahymena pyriformis W as the test organism and a medium composed of 20 g tryptose-peptone (Difco Co.), 1 g yeast extract, 1 g glucose, 1000 ml distilled water, 10 ml 1 M phosphate buffer (pH 7.0) as the assay medium, the microorganism was incubated at 28° C. for 44 to 48 hours and the growth inhibitory activity of demethylmaytansinoid compound (I) was assayed by the serial dilution method.

[2] = IFO7721, read-out: Antifungal activity, (φ mm), zone of growth inhibition, paper disc (8 mm diam.), 0.02 ml of a 100 μg/ml solution
[3] = pH 7, read-out: Antiprotozoan activity, MIC
[4] = IFO7721, paper disc (8 mm diam.), 0.02 ml of a 100 μg/ml solution, read-out: Antifungal activity, (φ mm), zone of growth inhibition

Row | Compound | zone of inhibition at 100 µg/mL [1, 2] [mm] | MIC (Tetrahymena pyriformis W; [3]) [µg/mL] | also measured
1 | COC1C=CC=C(C)Cc2cc(O)cc(c2)N(C)C(=O)CC(OC(=O)C(C)C)C2(C)OC2C(C)C2CC1(O)NC(=O)O2 (stereo not shown) [20-Demethoxy-20-hydroxydechloromaytansinol 3-isobutyrate] | 16 | – | –
2 | COC1C=CC=C(C)Cc2cc(O)c(Cl)c(c2)N(C)C(=O)CC(OC(C)=O)C2(C)OC2C(C)C2CC1(O)NC(=O)O2 (stereo not shown) [20-Demethoxy-20-hydroxymaytanacine] | 10 | 10 (≈ 16.9 µM) | Solubility in benzene, ether (Solubility): Slightly soluble; Solubility in chloroform, ethyl acetate, tetrahydrofuran, acetone, ethanol, methanol (Solubility): Soluble; Solubility in pyridine, dimethyl sulfoxide (Solubility): Freely soluble
3 | COC1C=CC=C(C)Cc2cc(O)c(Cl)c(c2)N(C)C(=O)CC(OC(=O)[C@H](C)N(C)C(=O)C(C)C)C2(C)OC2C(C)C2CC1(O)NC(=O)O2 (stereo partly shown) [20-Demethoxy-20-hydroxymaytanbutine (L)] | 24 | – | –
4 | CCC(=O)N(C)[C@@H](C)C(=O)OC1CC(=O)N(C)c2cc(cc(O)c2Cl)CC(C)=CC=CC(OC)C2(O)CC(OC(=O)N2)C(C)C2OC12C (stereo partly shown) [20-Demethoxy-20-hydroxymaytanprine (L)] | 23 | – | –
5 | COC1C=CC=C(C)Cc2cc(O)c(Cl)c(c2)N(C)C(=O)CC(OC(=O)[C@H](C)N(C)C(C)=O)C2(C)OC2C(C)C2CC1(O)NC(=O)O2 (stereo partly shown) [20-Demethoxy-20-hydroxymaytansine (L)] | – | > 16 | –
6 | COC1C=CC=C(C)Cc2cc(O)c(Cl)c(c2)N(C)C(=O)CC(OC(=O)Nc2ccccc2)C2(C)OC2C(C)C2CC1(O)NC(=O)O2 (stereo not shown) [20-Demethoxy-20-hydroxymaytansinol 3-N-phenylcarbamate] | < 8 | ≥ 8 | –
7 | COC1C=CC=C(C)Cc2cc(O)c(Cl)c(c2)N(C)C(=O)CC(OC(=O)C2CCCCC2)C2(C)OC2C(C)C2CC1(O)NC(=O)O2 (stereo not shown) [20-Demethoxy-20-hydroxymaytansinol 3-cyclohexanecarboxylate] | 20 | – | –
8 | CCCCCC(=O)OC1CC(=O)N(C)c2cc(cc(O)c2Cl)CC(C)=CC=CC(OC)C2(O)CC(OC(=O)N2)C(C)C2OC12C (stereo not shown) [20-Demethoxy-20-hydroxymaytansinol 3-hexanoate] | 21 | – | –
9 | COC1C=CC=C(C)Cc2cc(O)c(Cl)c(c2)N(C)C(=O)CC(OC(=O)c2ccc(Cl)cc2)C2(C)OC2C(C)C2CC1(O)NC(=O)O2 (stereo not shown) [20-Demethoxy-20-hydroxymaytansinol 3-p-chlorobenzoate] | 10 | 4 (≈ 5.8 µM) | –
10 | COC1C=CC=C(C)Cc2cc(O)c(Cl)c(c2)N(C)C(=O)CC(OC(=O)Cc2ccccc2)C2(C)OC2C(C)C2CC1(O)NC(=O)O2 (stereo not shown) [20-Demethoxy-20-hydroxymaytansinol 3-phenylacetate] | – | – | zone of inhibition at 100 µg/mL [1, 4]: 23 mm; Antifungal activity, (φ mm), zone of growth inhibition ([1]; paper disc (8 mm diam.), 0.02 ml of a 100 μg/ml solution): 15 mm
11 | COC1C=CC=C(C)Cc2cc(O)c(Cl)c(c2)N(C)C(=O)CC(OC(=O)c2ccccn2)C2(C)OC2C(C)C2CC1(O)NC(=O)O2 (stereo not shown) [20-Demethoxy-20-hydroxymaytansinol 3-picolinate] | 10 | ≥ 4 | –
12 | CCC(=O)OC1CC(=O)N(C)c2cc(cc(O)c2Cl)CC(C)=CC=CC(OC)C2(O)CC(OC(=O)N2)C(C)C2OC12C (stereo not shown) [20-Demethoxy-20-hydroxymaytansinol propionate] | 15 | – | Solubility in benzene, ether (Solubility): Slightly soluble; Solubility in chloroform, ethyl acetate, tetrahydrofuran, acetone, ethanol, methanol (Solubility): Soluble; Solubility in pyridine, dimethyl sulfoxide (Solubility): Freely soluble
13 | COC1C=CC=C(C)Cc2cc(O)c(Cl)c(c2)N(C)C(=O)CC(O)C2(C)OC2C(C)C2CC1(O)NC(=O)O2 (stereo not shown) [20-Demethoxy-20-hydroxymaytansinol] | < 8 | 40 (≈ 72.6 µM) | Solubility in benzene, ether (Solubility): Slightly soluble; Solubility in chloroform, ethyl acetate, tetrahydrofuran, acetone, ethanol, methanol (Solubility): Soluble; Solubility in pyridine, dimethyl sulfoxide (Solubility): Freely soluble
14 | COC1C=CC=C(C)Cc2cc(O)c(Cl)c(c2)N(C)C(=O)CC(OC(=O)[C@H](C)N(C)C(=O)CC(C)C)C2(C)OC2C(C)C2CC1(O)NC(=O)O2 (stereo partly shown) [20-Demethoxy-20-hydroxymaytanvaline (L)] | 24 | 2 (≈ 2.78 µM) | –
15 | COc1cc2cc(c1Cl)N(C)C(=O)CC(OC(=O)C(C)C)C1(C)OC1C(C)C1CC(O)(NC(=O)O1)C(OC)C=CC=C(C)C2 (stereo not shown) [Ansamitocin P-3, reference compound] | – | – | Solubility in chloroform, ethyl acetate, acetone, ethanol, methanol, pyridine, tetrahydrofuran & dimethylsulfoxide (Solubility): Soluble; Solubility in petr. ether, n-hexane & water (Solubility): Insoluble
16 | COc1cc2cc(c1Cl)N(C)C(=O)CC(OC(=O)CC(C)C)C1(C)OC1C(C)C1CC(O)(NC(=O)O1)C(OC)C=CC=C(C)C2 (stereo not shown) [Ansamitocin P-4, reference compound] | – | – | Solubility in chloroform, ethyl acetate, acetone, ethanol, methanol, pyridine, tetrahydrofuran & dimethylsulfoxide (Solubility): Soluble; Solubility in petr. ether, n-hexane & water (Solubility): Insoluble
17 | CCCC(=O)OC1CC(=O)N(C)c2cc(cc(O)c2Cl)CC(C)=CC=CC(OC)C2(O)CC(OC(=O)N2)C(C)C2OC12C (stereo not shown) [PDM-3', 20-demethoxy-20-hydroxymaytansinol 3-butyrate] | 21 | 2 (≈ 3.22 µM) | –
18 | COC1C=CC=C(C)Cc2cc(O)c(Cl)c(c2)N(C)C(=O)CC(OC(=O)C(C)C)C2(C)OC2C(C)C2CC1(O)NC(=O)O2 (stereo not shown) [PDM-3] | – | – | zone of inhibition at 100 µg/mL [1, 4]: 21 mm; MIC (Tetrahymena pyriformis W; serial dilution, 28° C., 44 to 48 hours, pH 7.0, read-out: Antiprotozoan activity, MIC): 2 µg/mL (≈ 3.22 µM)
19 | COC1C=CC=C(C)Cc2cc(O)c(Cl)c(c2)N(C)C(=O)CC(OC(=O)CC(C)C)C2(C)OC2C(C)C2CC1(O)NC(=O)O2 (stereo not shown) [PDM-4, 20-demethoxy-20-hydroxymaytansinol 3-isovalerate] | 24 | 1 (≈ 1.57 µM) | Solubility in benzene, ether (Solubility): Slightly soluble; Solubility in chloroform, ethyl acetate, tetrahydrofuran, acetone, ethanol, methanol (Solubility): Soluble; Solubility in pyridine, dimethyl sulfoxide (Solubility): Freely soluble
